Experimental data taken from patent publication US20070272777A1 (priority 2005, published 2007).
Where two headings read alike, the source gives them in different places.

Legend:
[1] = Excerpt: FIG. 6B illustrates this method. […] The standard may be prepared by mixing specific amounts of Type C and Form II and determining the X-ray diffraction pattern. This method is also illustrated in FIGS. 6A and B which are used to calculate the ratio between the heights of the peaks in the known mixtures. […] A round aluminum sample holder with zero background was used. […] Running in spin/oscillate mode. All peak positions are reported with an error of ±0.2 degrees two theta.
[2] = disclosed in WO 05/058835; cited from earlier work
serotonin reuptake site = serotonin reuptake site (Homo sapiens, UniProt P31645); conditions: cited from earlier work
Sequence of serotonin reuptake site (P31645 whole entry): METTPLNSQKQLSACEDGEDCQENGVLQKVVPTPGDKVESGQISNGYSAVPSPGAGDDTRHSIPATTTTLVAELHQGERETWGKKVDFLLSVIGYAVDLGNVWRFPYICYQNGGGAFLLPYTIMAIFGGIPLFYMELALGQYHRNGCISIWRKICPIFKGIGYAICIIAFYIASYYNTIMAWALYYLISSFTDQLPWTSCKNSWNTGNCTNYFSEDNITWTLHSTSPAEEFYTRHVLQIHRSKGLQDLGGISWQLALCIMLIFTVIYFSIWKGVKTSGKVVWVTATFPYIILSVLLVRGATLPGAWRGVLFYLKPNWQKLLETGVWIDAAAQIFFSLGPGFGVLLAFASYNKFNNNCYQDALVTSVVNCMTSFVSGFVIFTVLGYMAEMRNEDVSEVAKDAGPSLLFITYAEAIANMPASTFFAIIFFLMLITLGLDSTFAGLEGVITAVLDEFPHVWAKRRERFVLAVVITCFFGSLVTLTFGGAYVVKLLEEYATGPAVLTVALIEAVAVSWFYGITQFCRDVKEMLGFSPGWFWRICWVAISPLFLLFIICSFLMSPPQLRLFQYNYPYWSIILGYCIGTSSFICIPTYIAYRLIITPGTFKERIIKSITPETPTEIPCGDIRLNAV

[3] = system: cholinergic muscarinic receptors; conditions: cited from earlier work
[4] = molecular target: T1, serotonin 5-HT2C receptor (Homo sapiens, UniProt P28335); conditions: cited from earlier work
T1 sequence (P28335 33-458): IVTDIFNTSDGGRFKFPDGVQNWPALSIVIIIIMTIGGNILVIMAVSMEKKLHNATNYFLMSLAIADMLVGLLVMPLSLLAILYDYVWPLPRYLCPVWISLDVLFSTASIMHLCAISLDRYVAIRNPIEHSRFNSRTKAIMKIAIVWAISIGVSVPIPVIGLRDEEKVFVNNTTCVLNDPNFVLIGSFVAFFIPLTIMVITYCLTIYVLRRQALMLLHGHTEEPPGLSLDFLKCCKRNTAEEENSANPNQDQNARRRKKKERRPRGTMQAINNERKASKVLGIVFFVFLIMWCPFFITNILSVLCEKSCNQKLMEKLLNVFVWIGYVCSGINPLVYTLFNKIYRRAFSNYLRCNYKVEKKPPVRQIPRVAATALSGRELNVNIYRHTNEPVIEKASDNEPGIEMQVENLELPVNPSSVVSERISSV

[5] = molecular target: serotonin 5-HT2A receptor (Homo sapiens, UniProt P28223); conditions: cited from earlier work
Sequence of serotonin 5-HT2A receptor (P28223 whole entry): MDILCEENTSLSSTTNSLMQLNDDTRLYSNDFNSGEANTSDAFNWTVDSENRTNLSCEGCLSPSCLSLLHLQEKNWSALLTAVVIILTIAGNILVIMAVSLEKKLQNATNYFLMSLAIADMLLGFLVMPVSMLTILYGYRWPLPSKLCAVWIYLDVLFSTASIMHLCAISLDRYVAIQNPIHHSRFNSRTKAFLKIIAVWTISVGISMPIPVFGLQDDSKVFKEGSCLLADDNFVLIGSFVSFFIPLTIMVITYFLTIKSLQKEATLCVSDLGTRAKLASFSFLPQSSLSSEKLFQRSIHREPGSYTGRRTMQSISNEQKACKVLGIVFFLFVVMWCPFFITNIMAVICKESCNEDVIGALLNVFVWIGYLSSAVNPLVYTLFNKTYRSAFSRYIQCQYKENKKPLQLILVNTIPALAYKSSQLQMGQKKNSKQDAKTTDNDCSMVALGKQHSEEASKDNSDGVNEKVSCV

histamine H1 receptor = histamine H1 receptor (Homo sapiens, UniProt P35367); conditions: cited from earlier work
Sequence of histamine H1 receptor (P35367 whole entry): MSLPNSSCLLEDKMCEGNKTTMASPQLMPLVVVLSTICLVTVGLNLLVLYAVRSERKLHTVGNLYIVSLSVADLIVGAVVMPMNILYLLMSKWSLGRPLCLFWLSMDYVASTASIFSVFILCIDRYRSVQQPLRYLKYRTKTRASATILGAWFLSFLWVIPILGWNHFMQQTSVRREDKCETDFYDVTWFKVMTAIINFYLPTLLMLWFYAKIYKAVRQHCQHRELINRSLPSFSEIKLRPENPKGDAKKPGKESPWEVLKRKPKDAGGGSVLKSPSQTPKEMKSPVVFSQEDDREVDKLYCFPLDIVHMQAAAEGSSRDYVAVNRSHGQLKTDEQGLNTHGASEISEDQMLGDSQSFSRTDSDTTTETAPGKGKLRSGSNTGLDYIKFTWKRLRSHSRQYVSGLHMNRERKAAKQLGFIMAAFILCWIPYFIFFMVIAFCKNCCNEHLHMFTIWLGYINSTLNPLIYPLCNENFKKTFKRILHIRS

α1-adrenergic receptor = conditions: cited from earlier work
[6] = molecular target: T2, serotonin 5-HT1A receptor (Homo sapiens, UniProt P08908); conditions: cited from earlier work
T2 sequence (P08908 1-422): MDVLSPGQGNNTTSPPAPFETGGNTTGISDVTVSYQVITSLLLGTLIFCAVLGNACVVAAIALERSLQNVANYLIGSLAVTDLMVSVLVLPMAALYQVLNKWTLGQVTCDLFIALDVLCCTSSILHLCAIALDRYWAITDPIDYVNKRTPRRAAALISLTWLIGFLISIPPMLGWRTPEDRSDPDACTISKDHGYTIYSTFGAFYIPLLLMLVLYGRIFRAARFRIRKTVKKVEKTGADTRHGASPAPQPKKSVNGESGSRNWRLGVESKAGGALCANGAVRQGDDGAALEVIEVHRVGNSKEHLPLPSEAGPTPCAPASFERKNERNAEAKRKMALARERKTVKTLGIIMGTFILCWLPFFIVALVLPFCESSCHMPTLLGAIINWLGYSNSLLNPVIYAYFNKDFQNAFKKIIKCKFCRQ

[7] = prepared by recrystallization from ethanol or heating hydrate at 80° C; according to WO 03/26659; cited from earlier work
[8] = Example 5 (comparative): centrifugal ball mill, 90 minutes at 580 rpm

## O=C1CCc2ccc(OCCCCN3CCN(c4cccc(Cl)c4Cl)CC3)cc2N1 [Aripiprazole Form II, 7-{4-[4-(2,3-dichlorophenyl)-1-piperazinyl]-butoxy}-3,4-dihydro-2(1H)-quinolinone]
[1]; Example 1A: conical mill, 470 micron screen, 4710 rpm
  Type C content of milled sample by XRD: less than 5%
[1]; Example 1B: conical mill, 830 microns screen, 1315 rpm
  Type C content of milled sample by XRD: less than 5 % by weight
[1]; Example 2: ground with mortar and pestle about 1 min
  Type C content of milled sample by XRD: less than 5%
[1]; Example 3A: micronizer, Feeding Air 5.0 bars, Grinding Air 4.0 bars
  Type C content of milled sample by XRD: did not contain Type_C
[1]; Example 3B: micronizer, Feeding Air 3.0 bars, Grinding Air 2.0 bars
  Type C content of milled sample by XRD: did not contain Type_C
[1]; Example 3C: micronizer, 4 kg, Feeding Air 6.0 bars, Grinding Air 5.0 bars
  Type C content of milled sample by XRD: did not contain Type_C
[1]; Example 4A and 4B: frozen at −10° C. to −20° C. 24 hours, conical mill 470 microns/4710 or 830 microns/1315 rpm
  transformation to Type C by XRD: not transformed to Type C
[1]; [8]
  Type C content after milling by XRD: stark increase in the content of Type C
  crystallinity after milling by XRD: crystallinity of the sample decreased
[2]
  polymorphic transformation on heating: transformation to Type C

## O=C1CCc2ccc(OCCCCN3CCN(c4cccc(Cl)c4Cl)CC3)cc2N1 [Aripiprazole, 7-{4-[4-(2,3-dichlorophenyl)-1-piperazinyl]-butoxy}-3,4-dihydro-2(1H)-quinolinone]
Serotonin reuptake site
  affinity for the serotonin reuptake site: moderate affinity
[3]
  affinity for cholinergic muscarinic receptors: no appreciable affinity
[4]
  affinity for serotonin 5-HT2C receptor: moderate affinity
[5]
  affinity for serotonin 5-HT2A receptor: high affinity
Histamine H1 receptor
  affinity for histamine H1 receptor: moderate affinity
α1-adrenergic receptor
  affinity for α1-adrenergic receptor: moderate affinity
[6]
  affinity for serotonin 5-HT1A receptor: high affinity

## O=C1CCc2ccc(OCCCCN3CCN(c4cccc(Cl)c4Cl)CC3)cc2N1 [anhydride aripiprazole]
[7]
  hygroscopicity: significantly hygroscopic
